Reference: patent US20240139136A1, “METHODS AND FORMULATIONS FOR TOPICAL ADMINISTRATION OF GABAPENTINOIDS” (VYLUMA INC., priority 2021, published 2024)

Test system: rats with post-surgical corneal injuries
Assay: Capsaicin-induced ipsilateral paw (eye) wipes in rats with post-surgical corneal injury
Assay type: in vivo
Settings: 3% ophthalmic formulation, topical; challenge with 40 μL 0.1% capsaicin 15 minutes after administration; compared with capsaicin-alone baseline; FIG. 1
Protocol: Test ophthalmic formulations were administered to rats with post-surgical corneal injuries to test the efficacy of the formulations in treating corneal pain. A negative control was established by treating all animals with artificial tears (AT) and counting ipsilateral paw wipes for 60 seconds (FIG. 1, Baseline (Pre-induction)). 20 minutes later, a positive control was established by treating all animals with 40 μL 0.1% capsaicin and counting ipsilateral paw wipes for 60 seconds (FIG. 1, Baseline). Eyes were then flushed with balanced salt solution (BSS) and AT. 20 minutes later, all animals were treated with the test ophthalmic formulation (0.5% proparacaine (positive control), 3% nalbuphine, 3% pregabalin, or 3% ketamine). 15 minutes later, all animals were treated with 40 μL 0.1% capsaicin, and ipsilateral paw wipes were counted for 60 seconds (FIG. 1, 15 Minutes).

Structure (SMILES) | eye wipes (ipsilateral paw wipes counted for 60 seconds)
CNC1(c2ccccc2Cl)CCCCC1=O (stereo not drawn) [ketamine] | borderline response
CC(C)C[C@H](CN)CC(=O)O [pregabalin] | significant decrease
Oc1ccc2c3c1O[C@H]1[C@@H](O)CC[C@@]4(O)[C@@H](C2)N(CC2CCC2)CC[C@]314 [nalbuphine] | significant decrease
